Broadly, the AUC(0-inf) is the area under the concentration-time curve extrapolated to infinity. Low readings indicate less exposure, high ones more exposure.

This is an account of results in ChEMBL document CHEMBL3856191, “Structural modifications at the 6-position of thieno[2,3-d]pyrimidines and their effects on potency at FLT3 for treatment of acute myeloid leukemia” (Eur J Med Chem, 2016).

For data set [1], the target named is Mitogen-activated protein kinase 10 (Homo sapiens) (UniProt P53779). Put plainly: Inhibition of recombinant human JNK3 expressed in insect Sf21 cells assessed as remaining activity at 10 uM preincubated for 15 mins followed by ATF2 substrate addition for 30 mins in presence of [gamma-32P]ATP by […] assay. (TR-FRET usually uses a lanthanide donor and a delayed reading to cut background.)
Chain of Mitogen-activated protein kinase 10 (Homo sapiens) (P53779 whole entry): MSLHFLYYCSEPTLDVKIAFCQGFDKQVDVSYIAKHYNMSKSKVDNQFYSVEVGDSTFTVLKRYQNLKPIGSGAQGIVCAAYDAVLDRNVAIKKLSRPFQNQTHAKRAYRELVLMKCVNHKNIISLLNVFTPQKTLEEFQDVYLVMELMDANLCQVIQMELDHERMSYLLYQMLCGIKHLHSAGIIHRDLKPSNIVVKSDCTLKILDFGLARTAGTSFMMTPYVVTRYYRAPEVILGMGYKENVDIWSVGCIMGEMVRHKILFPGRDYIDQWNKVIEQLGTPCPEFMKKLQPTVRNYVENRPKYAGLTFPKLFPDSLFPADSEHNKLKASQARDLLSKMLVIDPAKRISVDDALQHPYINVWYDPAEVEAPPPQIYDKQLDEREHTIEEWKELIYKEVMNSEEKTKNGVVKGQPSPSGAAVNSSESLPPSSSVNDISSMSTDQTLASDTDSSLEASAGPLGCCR

Data set [2] addresses Tyrosine-protein kinase ZAP-70 (Homo sapiens) (UniProt P43403). Put plainly: Inhibition of recombinant human ZAP-70 expressed in insect Sf21 cells assessed as remaining activity at 10 uM preincubated for 15 mins followed by poly(Glu:Tyr) substrate addition for 30 mins in presence of [gamma-32P]ATP by […] assay.
Data set [3] is described as follows: AUC (0 to infinity) in Sprague-Dawley rat at 30 mg/kg, up to 24 hrs by LC/MS/MS analysis. On the set-up: dose 30 mg/kg, time infinity. The data set is classed as ADME, organism-based. The conditions noted are these: in vivo.
The nature of data set [4]: Elimination half life in Sprague-Dawley rat at 30 mg/kg, po by LC/MS/MS analysis. The data set is classed as ADME, organism-based. The settings on record: in vivo, read-out: beta t1/2 (converted).

Chain of Tyrosine-protein kinase ZAP-70 (Homo sapiens) (P43403 whole entry): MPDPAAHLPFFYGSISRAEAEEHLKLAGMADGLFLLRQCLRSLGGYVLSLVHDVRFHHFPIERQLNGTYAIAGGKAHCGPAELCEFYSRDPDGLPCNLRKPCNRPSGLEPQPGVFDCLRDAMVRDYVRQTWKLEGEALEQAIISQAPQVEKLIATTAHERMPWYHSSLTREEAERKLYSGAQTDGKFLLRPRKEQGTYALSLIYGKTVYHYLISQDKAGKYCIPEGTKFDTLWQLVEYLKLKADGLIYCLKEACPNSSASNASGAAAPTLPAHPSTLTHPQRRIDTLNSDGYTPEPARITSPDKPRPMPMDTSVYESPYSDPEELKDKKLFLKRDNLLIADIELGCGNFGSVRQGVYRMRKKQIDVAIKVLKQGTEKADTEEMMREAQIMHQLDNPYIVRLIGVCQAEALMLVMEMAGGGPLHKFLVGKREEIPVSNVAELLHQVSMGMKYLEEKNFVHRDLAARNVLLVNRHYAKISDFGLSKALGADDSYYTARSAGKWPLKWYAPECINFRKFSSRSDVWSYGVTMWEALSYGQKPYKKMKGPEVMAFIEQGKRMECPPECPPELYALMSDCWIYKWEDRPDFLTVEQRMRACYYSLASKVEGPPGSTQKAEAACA

With `CNCCOc1ccc(-c2sc3nc(-c4cccs4)nc(NN4C(=O)C=C(C)C4=O)c3c2C)cc1.Cl`, the Activity came out at 96% in data set [1] and 101% in data set [2]. Also, the AUC(0-inf) in data set [3] amounted to 2.17 µg·h/mL. Moreover, in data set [4], the half-life was 15.2 h.
